Assay [1] deals with Proteus vulgaris CN 329. The assay is described as follows: testing discs on standard nutrient medium. It counts as cell-based. To be noted: Proteus vulgaris, CN329; read-out: Size of zone in cm (×6 magnification).
Assay [2] concerns the target T1, hydroxymethyldihydropteridine pyrophosphokinase (HMPPS) (Escherichia coli, UniProt P26281).
T1 construct: obtained from an extract of E. coli; endogenous in cells; host or cells: E. coli extract; HMPPS separated from synthetase on Sephadex G-100 (method of Richey and Brown 1969)
The assay is described as follows: HMPPS assay: transfer of terminal phosphate of ATP-γ-P^32 to Pt. It counts as biochemical, E. coli. The text has this: (a) An assay for HMPPS was developed in which the transfer of the terminal phosphate of ATP-γ-P^32 to Pt could be monitored and correlated with the amount of inhibition of HMPPS by the compound under test.
The compound under test was incorporated into various formulations comprising metabolites and enzymes contained in test tubes, as indicated in TABLE 1.
II--a source of HMMP S, obtained from an extract of E. coli and separated from `synthetase` on Sephadex G-100, according to the method of Richey and Brown in J. Biol. Chem. 244, 1582-1592 (1969)
(§1) Control tubes 10 to 12 include a source of both HMPPS and synthetase, unlabelled ATP, 0.1M MgCl2.6H2 O and labelled pAB.
Tubes 1 to 9 containing the amounts of components shown in the Table, were filled up to 200 μl with distilled water, incubated for 60 minutes at 37° C. and then chilled on ice. Dextrose (20 μl containing 72.1 mg/ml) and hexokinase (5 μl containing 2000 units/ml) were added to the solution, which was then allowed to stand at room temperature for 15 minutes. `Darco-G-60` (Registered Trade Mark) (10 mg) was added to each tube and the contents mixed periodically for 10 minutes. The charcoal was removed through a "Millipore AP 250 2200" (Registered Trade Mark) filter and the filter was washed with three 10 ml portions of cold water. The Charcoal and the filter were then radioactively counted.
The radioactive count from the contents of tubes 2 and 3 was taken as the maximum count, since these tubes contained no test compound and thus gave 0% enzyme inhibition. The percentage inhibition produced by the contents of the remaining tubes could then be calculated by relating their radioactive count to the maximum, as determined above.

In assay [3] the test system is Pseudomonas aeruginosa CN 200. The assay is described as follows: testing discs on standard nutrient medium. The format is cell-based. The conditions noted are these: Pseudomonas aeruginosa, CN200; read-out: Size of zone in cm (×6 magnification).
Assay [4] has as its system HMPPS and `synthetase`. As to the kind of experiment: control tubes with source of both HMPPS and `synthetase`, labelled pAB, chromatographic analysis. It counts as biochemical, E. coli. The conditions noted are these: 1 × 10^-5 M. As to the method: as §1
Two control test tubes were prepared, each containing ATP (10 μl, 0.1M), MgCl2.6H2 O (10 μl, 0.1M), dithiothreitol (20 μl, 0.1M) tris buffer (20 μl, 0.4M, pH 8.3), pAB-C^14 (10 μl, 0.4 mM), and 20 μl of a solution containing HMPPS and `synthetase` of known activity. The test compound was added to the second of these two tubes up to a final concentration of 10^-5 M, and both tubes were made up with distilled water to 200 μl.
All seven tubes were then incubated for 30 minutes at 37° C., chilled on ice and then these, together with control tubes 10 to 12 from part (a), were chromatographically analysed as follows:
100 μl of the contents of each of the tubes was spotted onto Whatman No. 3 MM chromatography paper (2×20 cm) at the `origin`, the run descending in a Sorenson buffer of potassium and sodium phosphates (0.1M, pH 7.0) for 10 to 15 cm.

Assay [5] relates to E. acervulina. As to the kind of experiment: coccidiosis screening test in chicks, E. acervulina. It counts as in vivo. As to the method:
"Screening tests" were performed to establish the effectiveness of the compounds of formula (I) both alone and in combination with a competitor and or an inhibitor and to determine the most useful levels of relative concentrations of each component in combatting or suppressing coccidiosis.
Groups of Ranger cockerels, housed in small, heated cages with wire floors situated in enironmentally controlled isolation rooms, were infected orally with sporulated oocysts of the Eimeria spp such as E. tenella or E. acervulina. The appropriate test compound(s), (DMHP, sulphaquinoxaline (SQX) or diaveridine (DV) or any combination of these) were incorporated in a small quantity of specially formulated laboratory ration deficient in Vitamin K (`L.D.4 mash`), as a 1/10 pre-mix, which was then mixed into the diet on a horizontal roller drum mixed and administered to groups of chicks one day prior to infection, leaving some groups as untreated controls. […]
The amount of damage, marked by lesions in the caecal walls was investigated in those chicks that died during the course of the experiment, and in those sacrificed on the final day of administration, and compared with the untreated controls as a basis for the determination of therapeutic activity. In addition the mortality rate and the percentage weight gains in the various groups were assessed. […]

The mark [6] stands for this setting: final concn. 0.93 × 10^-4 M, tubes 8, 9.

The structures appear in SMILES notation. Values joined by “and” are separate entries in the source; they are usually repeats but may differ in a detail not shown here. Equal values may be shown once.

T1 sequence (P26281 whole entry): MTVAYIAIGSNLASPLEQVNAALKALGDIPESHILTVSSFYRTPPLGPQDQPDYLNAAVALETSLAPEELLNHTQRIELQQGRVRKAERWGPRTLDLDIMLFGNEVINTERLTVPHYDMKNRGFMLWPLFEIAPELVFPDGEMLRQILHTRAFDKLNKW

As a reminder, the IC50 is the point on the concentration scale where inhibition reaches its midpoint. For `CC1(C)Nc2nc(N)nc(O)c2N=C1CO` [DMHP, 2-amino-4-hydroxy-6-hydroxymethyl-7,7-dimethyl-7,8-dihydropteridine], the zone of inhibition at 100 µg/disc came out at 0 mm in assay [1] and 220 mm in assay [3]. In assay [2], the IC50 was 2 to 4 µM. Also, the “% Inhibn.” value was 95% in assay [2] (setting [6]); 87% and 55% in assay [2] (final concn. 1 × 10^-5 M, tubes 6, 7); 33% in assay [2] (test compound final concn., tubes 4, 5); 79% in assay [4] (Table 1 control tube 12); 83% in assay [4] (Table 2 control tube 7). In addition, the inhibition at 93 µM in assay [2] (setting [6]) is 98%. Also, the inhibition at 2.5e-10 µM in assay [2] (read-out: % Inhibn., test compound final concn., tubes 4, 5) came to 44%. The “Total Oocysts × 10^6 Days 5 & 6” value in assay [5] (Expt. 8, 5,000,000 oocysts, SQX/DV/DMHP p.p.m: b497-499 -/-/30, 10, 5, b500 10/10/-, b502 10/10/30, b504 10/10/10, b506 10/10/5) was 0.0 × 10^6. Also, the “activity alone against moderate infection with E. acervulina” value in assay [5] (concentrations of 250 and 90 p.p.m) is “active alone”.
